From US6894033B2, “Combination therapies using vitamin B12 and therapeutic agents for treatment of viral, proliferative and inflammatory diseases” (Transition Therapeutics Inc., priority 2001, dated 2005)
Where two headings read alike, the source gives them in different places.

Tests used:
GFAP [1] = test: GFAP in brain of EAE mice (immunohistochemistry, slot blot of homogenates); type: in vivo, mouse
Protocol: EAE mice were treated as described previously in Example 2. After the various treatments, the mice were sacrificed and brain sections removed for GFAP staining and quantitation. The brain region of hippocampus, adjacent to the dentate gyrus was fixed in formalin, paraffin-embedded and sectioned at 5 μm. Immunohistochemistry with anti-GFAP antibody was used to stain for GFAP.
In addition, quantification of GFAP within the brains of normal, EAE untreated and EAE treated mice was carried out to provide a more precise level of protein expression. Whole brain homogenates were assayed for GFAP by slot blot. Brains were homogenized in a buffer containing 50 mM Tris-HCl pH 7.6, 0.5 mM DTT, 1 mM EDTA, and 0.43 mM PMSF. The homogenate was centrifuged at 11000 rpm for 30 min at 4° C. The pellet was isolated and resuspended in a buffer containing 10 mM sodium phosphate pH 7.5, 2 mM DTT, 6 mM urea and 1 mM EDTA. Samples were loaded onto the slot blot apparatus (BioDot, Biorad) under vacuum. The blots were reacted with anti-GFAP antibodies and then a secondary antibody. The blots were developed and the relative amounts of each band quantified.

ND4 mouse model = test: Clinical signs in the ND4 demyelinating transgenic mouse model; type: in vivo; conditions: ND4 mice; for mean clinical scores / clinical signs (FIG. 5): intraperitoneal, paclitaxel alone 20 mg/kg once a week, vitamin B12 10 mg/kg once a week, combination with paclitaxel 5 mg/kg three times per week
Excerpt: (§1) In this model, the severity of the clinical signs increased until a maximum around 6 months with animals dying around 8 to 9 months of age. Clinical signs assessed included general shaking, seizures, head jerk, hind limb and tail shiver, wobbly gait and limp tail. The scale of zero (absence) to four (constant and uncontrollable movements) was used for each of the clinical signs.
All treatments began when the mice reached 3 months of age at which time signs of demyelinating disease were evident. Treatment was stopped at time of sacrifice.
Treatment was started when the animals were 3 months of age and continued for 11 weeks. The animals were evaluated twice a week for clinical signs and the scores were averaged on a weekly basis. Refer to example 1 for more experimental details.
as §1, with “The” for “In this model, the”, “increase” for “increased”, “include” for “included”
Mice (4 animals per group) were treated with vitamin B12 (cyanocobalamin) alone at a dose of 15 mg/kg, weekly and in combination with P-16. P-16 was administered alone and in combination with vitamin B12 at a dose of 1 mg/kg, tri-weekly. All treatments began when the mice reached 3 months of age at which time signs of demyelinating disease were evident. Treatment was stopped at time of sacrifice.
The ND4 transgenic mice received one of the following treatments through intraperitoneal injections: 1) paclitaxel (TAXOL®) at a dose of 20 mg/kg once a week; 2) vitamin B12 at a dose of 10 mg/kg once a week and paclitaxel (TAXOL®) at a dose of 5 mg/kg three times per week; and 3) vitamin B12 at a dose of 10 mg/kg once a week. All treatments started when the mice reached 3 months of age, at which time signs of demyelinating disease were evident.

[2] = tested on: Human Hepatitis B Virus (HBV); test: HBV DNA copies in HepG2.2.15 culture medium by Lightcycler real-time PCR; type: cell-based; conditions: for Antiviral effect on HBV (HBV DNA copies): HepG2.2.15, 9 days
Protocol: HepG2.2.15 cells, a cell line that was stably transfected with HBV genome, were cultured in RPMI-1640 with fetal bovine serum at either 2 or 4% final concentration and with no antibiotics. The cells were seeded in a 96-well plate at a density of 2×10^4 cells/well and grown overnight. […] Triplicate samples were measured for each concentration. The cells were incubated at 37° C. for 9 days. Drug/medium was changed daily. On day 9, the culture media containing released HBV virions were harvested and used to extract HBV DNA.
HBV DNA from drug-treated HepG2.2.15 cell culture media was extracted using QIAmp DNA mini kit—blood and body fluid spin column according to manufacturer's instructions. Briefly, 10 μl of QIAGEN proteinase K was added to 1.5 ml Eppendorf tube. 50 μl cell supernatant and 50 μl AL buffer were added to the tube. The samples were incubated at 56° C. water bath for 3 h. At the end of incubation, 50 μl ethanol was added to the sample. The mixture was transferred to a QIAamp spin column and centrifuged at 14000 rpm for 1 min. The filtrate was discarded. 50 μl Buffer AW1 was then added to the column and centrifuged at 14000 rpm for 1 min. Following washing and recentrifugation, DNA was eluted in 50 μl dH2O.
HBV DNA was detected by real-time PCR using Lightcycler assay. The reaction was performed in 20 μl, comprising the following: 6.4/4.8 μl dH2O, 2 μl 25 mM MgCl2, 1 μl 10 μM sense primer, 1 μl 10 μM antisense primer, 8/1.6 μl LightCycler Probe (fluorescein-labeled, 5 μM), 0.8/1.6 μl LightCycler Probe 2 (LC Red 640-labeled, 10 μM), 2 μl LC FastStart DNA Master Hyb Probes, 1 μl uracil DNA glycosylase.
PCR mix was aliquoted into glass capillaries and 5 μl DNA template was then added to the PCR mix. A range of HBV plasmid DNA (1×10^8, 1×10^7, 1×10^6, . . . , 1×10^2, 25 copies) was used as standards for quantitative analysis.
The antiviral effects of the test compounds were calculated using DNA copy numbers as an endpoint. Specifically, the antiviral activities were calculated based on the following formula: Antiviral effect=(Ccontrol−Ctest)/Ccontrol whereby the Ccontrol is the HBV DNA copies in the control wells (without drug); the Ctest is the HBV DNA copies in the test wells with a given concentration of a test compound.
The enhancing or antagonistic effect was analyzed mathematically using the median effect equation (Chou and Talalay, 1984) by computer software CalcuSyn (Biosoft, St. Louis).

[3] = tested on: Mouse ascite astrocytoma cells; conditions: overnight, no treatment 0.8955
Protocol: Mouse ascite astrocytoma cells were seeded in a 96-well plate and grown to 60% confluence in standard growth conditions.
96® AQueous One Solution Cell Proliferation Assay was used as a colorimetric method for determining the number of viable cells in proliferations. […] 96® AQueous One Solution Reagent directly to culture wells, incubating for 1-4 hours and then recording absorbance at 490 nm with a 96 well plate reader. The quantity of formazan product as measured by the amount of 490 nm absorbance is known in the art to be directly proportional to the number of living cells in the culture.

[4] = tested on: Vesticular Stomatitis Virus (VSV); type: cell-based; conditions: MRC-5; for Anti-viral activity (protection of CPE) / viral activity, VSV: vitamin B12 = hydroxocobalamin (HC)
GFAP [5] = test: GFAP in brain of ND4 mice (immunohistochemistry, slot blot of homogenates); type: in vivo, mouse; conditions: Vitamin B12 15 mg/kg, Normal 1.0, untreated ND4 4.4
Excerpt: After the various treatments, the mice were sacrificed and brain sections removed for GFAP staining and quantitation. The brain region of hippocampus, adjacent to the dentate gyrus was fixed in formalin, paraffin-embedded and sectioned at 5 μm. Immunohistochemistry with anti-GFAP antibody was used to stain for GFAP. Glial fibrillary acidic protein was a protein expressed by astrocytes (particularly reactive astrocytes) and was used as a marker for these cells.
In addition, quantification of GFAP within the brains of normal, ND4 untreated and ND4 treated mice was carried out to provide a more precise level of protein expression. Whole brain homogenates were assayed for GFAP by slot blot. Brains were homogenized in a buffer containing 50 mM Tris-HCl pH 7.6, 0.5 mM DTT, 1 mM EDTA, and 0.43 mM PMSF. The homogenate was centrifuged at 11000 rpm for 30 min at 4° C. The pellet was isolated and resuspended in a buffer containing 10 mM sodium phosphate pH 7.5, 2 mM DTT, 6 mM urea and 1 mM EDTA. Samples were loaded onto the slot blot apparatus (BioDot, Biorad) under vacuum. The blots were reacted with anti-GFAP antibodies and then a secondary antibody. The blots were developed and the relative amounts of each band quantified.

[6] = Toxicity in the applicant's animal studies; type: in vivo; conditions: concentrations of 15 mg/kg of vitamin B12 in mice
[7] = tested on: Herpes Simplex Virus Type 2 (HSV-2); test: CPE inhibition assay in MRC-5 cells, HSV-2; type: cell-based
[8] = mice; doses up to 1 g/kg body weight; cited from earlier work
[9] = rabbits; doses up to 100 mg/kg body weight; cited from earlier work
[10] = Vitamin B12 (methylcobalamin) 25 μg/ml
[11] = HC 1 μg/ml, fraction (ODTest−OD0)/(ODControl−OD0)

cyanocobalamin [Vitamin B12]
Relative Amount of GFAP (+/−SD) (GFAP [1]; EAE brain homogenates, Vitamin B12 15 mg/kg, Normal 1.0, untreated EAE 4.2): 4.2 +/− 0.2
levels of activated astrocytes and levels of GFAP (GFAP [1]; EAE mice treated as in Example 2): not effective in decreasing the levels of GFAP
mean clinical scores / clinical signs (FIG. 5) (ND4 mouse model): significant attenuation of mean clinical scores
clinical signs of MS (FIG. 1) (ND4 mouse model; vitamin B12 (cyanocobalamin) 15 mg/kg weekly, interferon-beta 1a 5000 IU tri-weekly, from 3 months of age): attenuation of clinical signs
viral activity (HBV) ([2]; HepG2.2.15, vitamin B12 = hydroxocobalamin (HC)): not
Measure of Proliferative Activity (Absorbance at 490 nm) [3, 10]: 0.2985
Anti-viral activity (protection of CPE) / viral activity, VSV [4]: significantly increased
Relative Amount of GFAP (+/−SD) (GFAP [5]): 2.8 +/− 0.1
toxicity in animals [6]: no toxicity has been found

interferon-alpha
Anti-viral activity (protection of CPE) / viral activity, VSV [4]: significantly increased
Antiviral effect on VSV (CPE inhibition) ([4]; interferon 5 IU/ml, fraction): 0.296
Antiviral effect on VSV (CPE inhibition) ([4]; interferon 10 IU/ml, fraction): 0.387
Antiviral effect on VSV (CPE inhibition) ([4]; interferon 50 IU/ml, fraction): 0.950
Antiviral effect on VSV (CPE inhibition) ([4]; interferon 100 IU/ml, fraction): 0.996
Antiviral effect on VSV (CPE inhibition) ([4]; interferon 500 IU/ml, fraction): 0.942
Antiviral effect on HSV-2 (CPE inhibition) ([7]; interferon 5 IU/ml, fraction): 0.093
Antiviral effect on HSV-2 (CPE inhibition) ([7]; interferon 10 IU/ml, fraction): 0.139
Antiviral effect on HSV-2 (CPE inhibition) ([7]; interferon 50 IU/ml, fraction): 0.218
Antiviral effect on HSV-2 (CPE inhibition) ([7]; interferon 100 IU/ml, fraction): 0.282
Antiviral effect on HSV-2 (CPE inhibition) ([7]; interferon 500 IU/ml, fraction): 0.271

C/C1=C2/[N-][C@H]([C@H](CC(N)=O)[C@@]2(C)CCC(=O)NC[C@@H](C)OP(=O)([O-])O[C@H]2[C@@H](O)[C@@H](n3cnc4cc(C)c(C)cc43)O[C@@H]2CO)[C@]2(C)N=C(/C(C)=C3N=C(/C=C4N=C1[C@@H](CCC(N)=O)C\4(C)C)[C@@H](CCC(N)=O)[C@]\3(C)CC(N)=O)[C@@H](CCC(N)=O)[C@]2(C)CC(N)=O.[Co+3].[OH-] [HC, hydroxocobalamin]
Antiviral effect on HBV (HBV DNA copies) ([2]; HC 1 μg/ml, fraction (Ccontrol−Ctest)/Ccontrol): 0.001
Antiviral effect on HBV (HBV DNA copies) ([2]; HC 10 μg/ml, fraction): 0.001
Antiviral effect on HBV (HBV DNA copies) ([2]; HC 100 μg/ml, fraction): 0.001
Antiviral effect on HBV (HBV DNA copies) ([2]; HC 500 μg/ml, fraction): 0.112
acute toxicity [8]: no toxicities were observed
Antiviral effect on VSV (CPE inhibition) [4, 11]: ≤ 0.001
Antiviral effect on VSV (CPE inhibition) ([4]; HC 10 μg/ml, fraction): ≤ 0.001
Antiviral effect on VSV (CPE inhibition) ([4]; HC 100 μg/ml, fraction): 0.039
Antiviral effect on VSV (CPE inhibition) ([4]; HC 500 μg/ml, fraction): ≤ 0.001
Antiviral effect on VSV (CPE inhibition) ([4]; HC 1000 μg/ml, fraction): 0.002
Antiviral effect on HSV-2 (CPE inhibition) [7, 11]: 0.014
Antiviral effect on HSV-2 (CPE inhibition) ([7]; HC 10 μg/ml, fraction): 0.032
Antiviral effect on HSV-2 (CPE inhibition) ([7]; HC 100 μg/ml, fraction): 0.056
Antiviral effect on HSV-2 (CPE inhibition) ([7]; HC 500 μg/ml, fraction): 0.166
Antiviral effect on HSV-2 (CPE inhibition) ([7]; HC 1000 μg/ml, fraction): 0.210
acute toxicity [9]: no toxicities were observed

CC(=O)O[C@H]1C(=O)[C@@]2(C)[C@H]([C@H](OC(=O)c3ccccc3)[C@]3(O)C[C@H](OC(=O)[C@H](O)[C@@H](NC(=O)c4ccccc4)c4ccccc4)C(C)=C1C3(C)C)[C@]1(OC(C)=O)CO[C@@H]1C[C@@H]2O [paclitaxel]
mean clinical scores / clinical signs (FIG. 5) (ND4 mouse model): significant attenuation of mean clinical scores

C/C1=C2/[N-][C@H]([C@H](CC(N)=O)[C@@]2(C)CCC(=O)NC[C@H](C)OP(=O)([O-])O[C@H]2[C@@H](O)[C@@H](n3cnc4cc(C)c(C)cc43)O[C@@H]2CO)[C@]2(C)N=C(/C(C)=C3N=C(/C=C4N=C1[C@@H](CCC(N)=O)C\4(C)C)[C@@H](CCC(N)=O)[C@]\3(C)CC(N)=O)[C@@H](CCC(N)=O)[C@]2(C)CC(N)=O.[CH3-].[Co+3] [vitamin B12 (methylcobalamin), methylcobalamin]
Measure of Proliferative Activity (Absorbance at 490 nm) [3, 10]: decrease in proliferative activity

CSTMMSRSHKTRSHHV (Synthetically generated peptide) [P-16]
clinical signs of MS (FIG. 3) (ND4 mouse model; P-16 1 mg/kg tri-weekly, vitamin B12 (cyanocobalamin) 15 mg/kg weekly): attenuation of clinical signs

B1: Mouse Interferon-beta: mouse interferon-beta used on mouse astrocytoma cells (protein, UniProt P01575 22-182, looked up)
Interferon beta: INYKQLQLQERTNIRKCQELLEQLNGKINLTYRADFKIPMEMTEKMQKSYTAFAIQEMLQNVFLVFRNNFSSTGWNETIVVRLLDELHQQTVFLKTVLEEKQEERLTWEMSSTALHLKSYYWRVQRYLKLMKYNSYAWMVVRAEIFRNFLIIRRLTRNFQN
Measure of Proliferative Activity (Absorbance at 490 nm) ([3]; Mouse Interferon-beta 500 IU/ml): 0.3855
Measure of Proliferative Activity (Absorbance at 490 nm) ([3]; Mouse Interferon-beta 500 IU/ml, listed as mice interferon-beta): decrease in proliferative activity
